According to US20110196006A1, “IMAZALIL COMPOSITIONS COMPRISING ALKOXYLATED AMINES” (priority 2004, published 2011):

Columns and labels:
[1] = tested on: Microdochium nivale; assay: Experiment 1: poison plate assay (growth inhibition, MIC); format: cell-based; conditions: potato dextrose agar, 21° C., dark, 75% relative humidity, imazalil 6.66-1.58 ppm, alkoxylated amine 26.66-6.33 ppm, combinations imazalil:amine 1 to 4
Description: Activity against growth of Microdochium nivale was determined with the poison plate assay. A calculated amount of a stock solution (containing either imazalil or an alkoxylated amine of formula (I) dissolved in dimethyl sulfoxide was pipetted into multiwell plates. Culture medium (potato dextrose agar) was added aseptically and uniform distribution was obtained by shaking. The plates were inoculated with the test fungus Microdochium nivale (suspension of 6.10^5 spores/ml). The multi-well plates were kept in the dark at 21° C. and a relative humidity of 75%. The stock solution comprising imazalil at a concentration of 2000 ppm was pipetted in the multiwell plates in order to reach a final test concentration in six decreasing steps ranging from 6.66, 5.00, 3.75, 2.81, 2.11 and 1.58 ppm. The stock solution comprising an alkoxylated amine of formula (I) at a concentration of 8000 ppm was pipetted in the multiwell plates in order to reach a final test concentration in six decreasing steps ranging from 26.66, 20.00, 15.00, 11.25, 8.44, and 6.33 ppm wherein the ratio of imazalil to alkoxylated amine of formula (I) is 1 to 4 in each of the wells containing both imazalil and alkoxylated amine (I). The lowest concentration of each test compound or mixture of test compounds sufficient to inhibit visible growth was taken as the minimum inhibitory concentration (MIC). The MIC were taken as end points of activity. End points for the combinations of imazalil with an alkoxylated amine of formula (I) were then compared with the end points for these test compound when employed individually.

[2] = tested on: Microdochium nivale; assay: Experiment 2: poison plate assay (growth inhibition, MIC); format: cell-based; conditions: as Experiment 1, imazalil 10-2.37 ppm, alkoxylated amine 40-9.49 ppm
Description: Activity against growth of Microdochium nivale was determined with the poison plate assay. A calculated amount of a stock solution (containing either imazalil or an alkoxylated amine of formula (I) dissolved in dimethyl sulfoxide was pipetted into multiwell plates. Culture medium (potato dextrose agar) was added aseptically and uniform distribution was obtained by shaking. The plates were inoculated with the test fungus Microdochium nivale (suspension of 6.10^5 spores/ml). The multi-well plates were kept in the dark at 21° C. and a relative humidity of 75%. The lowest concentration of each test compound or mixture of test compounds sufficient to inhibit visible growth was taken as the minimum inhibitory concentration (MIC). The MIC were taken as end points of activity. End points for the combinations of imazalil with an alkoxylated amine of formula (I) were then compared with the end points for these test compound when employed individually. A similar poison plate assay was run as described in Experiment 1, but the final concentrations of imazalil now ranged from 10, 7.50, 5.63, 4.22, 3.16 to 2.37 ppm. The final concentrations of alkoxylated amine of formula (I) now ranged from 40, 30, 22.50, 16.88, 12.66 to 9.49 ppm.

[3] = Microdochium nivale, read-out: MIC-values (lowest concentration sufficient to inhibit visible growth)

C=CCOC(Cn1ccnc1)c1ccc(Cl)cc1Cl (centres unmarked) [imazalil]
MIC [1, 3]: 2.81 µg/mL | MIC [2, 3]: 3.16 µg/mL

N,N′,N′-tris(2-hydroxyethyl)-N-cocoalkyl-1,3-diaminopropane [ethoduomeen C13]
MIC-values (lowest concentration sufficient to inhibit visible growth) [2]: >40 ppm

N,N′,N′-tris-(2-hydroxyethyl)-N-tallowalkyl-1,3-diaminopropane [ethoduomeen T13]
MIC-values (lowest concentration sufficient to inhibit visible growth) [1]: >26.7 ppm

bis-(2-hydroxyethyl)cocoalkylamine [ethomeen C12]
MIC-values (lowest concentration sufficient to inhibit visible growth) [1]: >26.7 ppm
